Measured values reported in patent publication US6169181A, “Compounds useful to treat retroviral infections” (Pharmacia & Upjohn Company, priority 1998, dated 2001).
“And” between values parts separate entries of the source, which are not always exact repeats. Equal values may be shown once.

Each molecule was assayed against T1, single chain tethered (tandem) HIV protease (HIV-1 M:B_HXB2R, UniProt P04585) (assay: Tandem HIV protease assay). Conditions: read-out: FITC KI; Table II; enzyme HIV1TANDEM.
T1 construct: purified enzyme, FITC/biotin substrate assay
Type: biochemical
Method: In the enzyme inhibition assay described above, the sensitivity of Ki value determination is in part limited by the ability to continue to lower the enzyme concentration for compounds with high binding affinity. To prevent de-dimerization at low enzyme concentration, a tandemly linked enzyme is prepared in which the two monomers are covalently linked by an appropriate stretch of amino acid residues. Using the latter enzyme, the sensitivity of the inhibition assay is improved since much lower enzyme concentration can be utilized, as compared to the condition using the wild-type enzyme.
The starting inhibitor concentrations are determined based on preliminary enzyme inhibition screening results which estimate the expected potency of the inhibitor. Inhibitor concentrations are then prepared using the Biomek 1000 (Beckman) and the Quadra 96 (Tomtec). Substrate (biotinylated at the amino terminal arginine and fluorescently labeled with fluorescein at the carboxyl terminal lysine), inhibitor and the tandem enzyme are allowed to react in solution at pH 5.5 (buffers identical to those used with the native dimeric enzyme) in the dark for 96 hours. Streptavidin coated polystyrene beads are added to stop the reaction. The labeled cleavage product is separated from unreacted substrate via filtration. Residual fluorescence is quantitated with the Idexx SM2000 (Idexx) and the resulting data are analyzed using the NLLSF program.
`CC(C)(C)C(C1=C(O)CC(CCc2ccccc2)(CCC(F)(F)F)OC1=O)c1cccc(NS(=O)(=O)c2ccc(N)cn2)c1` (single isomer, unassigned) [Example 271, 5-amino-N-[3-(R or S)-[1-[5,6-dihydro-4-hydroxy-2-oxo-6-(2-phenethyl)-6-(R or S)-(3,3,3-trifluoropropyl)-2H-pyran-3-yl]-2,2-dimethylpropyl]phenyl]-2-pyridinesulfonamide] showed a Ki of 0.051 nM. With `CC(C)(C)C(C1=C(O)CC(CCc2ccccc2)(CCC(F)(F)F)OC1=O)c1cccc(NS(=O)(=O)c2ccc(C#N)cn2)c1` (single isomer, unassigned) [Example 272, 5-cyano-N-[3-(R or S)-[1-[5,6-dihydro-4-hydroxy-2-oxo-6-(2-phenethyl)-6-(R or S)-(3,3,3-trifluoropropyl)-2H-pyran-3-yl]-2,2-dimethylpropyl]phenyl]-2-pyridinesulfonamide] the Ki was 3.6 nM. `CCC(C1=C(O)CC(CCc2ccccc2)(CCc2ccccc2)OC1=O)c1cccc(NS(=O)(=O)c2ccc(C(F)(F)F)cn2)c1` (single isomer, unassigned) [Example 287, 5-Trifluoromethyl-N-[3-(R or S)-[1-[4-hydroxy-2-oxo-6,6-di-phenethyl-5,6-dihydro-2H-pyran-3-yl]-propyl]-phenyl]-2-pyridinesulfonamide] showed a Ki of 0.038 nM. Molecule `CCC(C1=C(O)CC(CCc2ccccc2)(CCc2ccccc2)OC1=O)c1cccc(NS(=O)(=O)c2cc(C(F)(F)F)ccn2)c1` (single isomer, unassigned) [Example 289, 4-Trifluoromethyl-N-[3-(R or S)-[1-[4-hydroxy-2-oxo-6,6-di-phenethyl-5,6-dihydro-2H-pyran-3-yl]-propyl]-phenyl]-2-pyridinesulfonamide] has a Ki of 0.133 nM. `CCC(C1=C(O)CC(CCc2ccccc2)(CCc2ccccc2)OC1=O)c1cccc(NS(=O)(=O)c2cc(C(F)(F)F)ccn2)c1` (single isomer, unassigned) [Example 290, 4-Trifluoromethyl-N-[3-(R or S)-[1-[4-hydroxy-2-oxo-6,6-di-phenethyl-5,6-dihydro-2H-pyran-3-yl]-propyl]-phenyl]-2-pyridinesulfonamide] was tested, and the Ki was 1.88 nM. Molecule `CCCC1(CCc2ccccc2)CC(O)=C(C(c2cccc(NS(=O)(=O)c3ccc(C(F)(F)F)cn3)c2)C(C)(C)C)C(=O)O1` (single isomer, unassigned) [Example 295, 5-Trifluoromethyl-N-[3 (R or S)-[1-[5,6-dihydro-4-hydroxy-2-oxo-6(R or S)-(2-phenethyl)-6(R or S)-n-propyl-2H-pyran-3-yl]-2,2-dimethylpropyl]-phenyl]-2-pyridinesulfonamide] has a Ki of 0.071 nM. For `CCCC1(CCc2ccccc2)CC(O)=C(C(c2cccc(NS(=O)(=O)c3cc(C(F)(F)F)ccn3)c2)C(C)(C)C)C(=O)O1` (single isomer, unassigned) [Example 296, 4-Trifluoromethyl-N-[3(R or S)-[1-[5,6-dihydro-4-hydroxy-2-oxo-6(R or S)-(2-phenethyl)-6(R or S)-n-propyl-2H-pyran-3-yl]-2,2-dimethylpropyl]-phenyl]-2-pyridinesulfonamide], the Ki was 0.042 nM. `CCC[C@@]1(CCc2ccccc2)CC(O)=C([C@@H](c2cccc(NS(=O)(=O)c3ccc(C#N)cn3)c2)C(C)(C)C)C(=O)O1` (single isomer, unassigned) [Example 302, 5-Cyano-N-[3(R or S)-(1-[5,6-dihydro-4-hydroxy-2-oxo-6(R or S)-(2-phenylethyl)-6-propyl-2H-pyran-3-yl]-2,2-dimethylpropyl)-phenyl]-2-pyridinesulfonamide] was tested, and the Ki was 1.87 nM and 3.6 nM. `CCC[C@@]1(CCc2ccccc2)CC(O)=C([C@@H](c2cccc(NS(=O)(=O)c3ccc(N)cn3)c2)C(C)(C)C)C(=O)O1` (single isomer, unassigned) [Example 312, 5-Amino-N-[3(R or S)-(1-[5,6-dihydro-4-hydroxy-2-oxo-6(R or S)-(2-phenylethyl)-6-propyl-2H-pyran-3-yl]-2,2-dimethylpropyl)-phenyl]-2-pyridinesulfonamide] showed a Ki of 0.255 nM. `CCCC1(CCC)CC(O)=C(C(c2cccc(NS(=O)(=O)c3ccc(N)cn3)c2)C(C)(C)C)C(=O)O1` (single isomer, unassigned) [Example 320, 5-Amino-N-[3(R or S)-(1-[5,6-dihydro-6,6-dipropyl-4-hydroxy-2-oxo-2H-pyran-3-yl]-2,2-dimethyl-propyl)phenyl]-2-pyridine sulfonamide] was tested, and the Ki was 0.071 nM and 0.05 nM and 0.075 nM. `CCCC1(CCC)CC(O)=C(C(c2cccc(NS(=O)(=O)c3ccc(C#N)cn3)c2)C(C)(C)C)C(=O)O1` (single isomer, unassigned) [Example 322, 5-Cyano-N-[3(R or S)-(1-[5,6-dihydro-6,6-dipropyl-4-hydroxy-2-oxo-2H-pyran-3-yl]-2,2-dimethyl-propyl)phenyl]-2-pyridine-sulfonamide] was tested, and the Ki was 1.07 nM and 1.29 nM. `CCC(C1=C(O)CC(CCc2ccccc2)(CCc2ccccc2)OC1=O)c1cccc(NS(=O)(=O)c2cn(C)cn2)c1` (single isomer, unassigned) [Example 324, N-[3(R or S)-(1-[6,6-Bis(2-phenyl-ethyl)-5,6-dihydro-4-hydroxy-2-oxo-2H-pyran-3-yl]propyl)phenyl]-1-methyl-1H-imidazole-4-sulfonamide] gave a Ki of 0.156 nM. With `CCC(C1=C(O)CC(CCc2ccccc2)(CCc2ccccc2)OC1=O)c1cccc(NS(=O)(=O)c2ccc(C#N)cn2)c1` (single isomer, unassigned) [Example 326, N-[3(R or S)-(1-[6,6-Bis(2-phenyl-ethyl)-5,6-dihydro-4-hydroxy-2-oxo-2H-pyran-3-yl]propyl)phenyl]-5-cyano-2-pyridinesulfonamide] the Ki was 0.029 nM. Molecule `Cn1cnc(S(=O)(=O)Nc2cccc(C(C3=C(O)CC(CCc4ccccc4)(CCc4ccccc4)OC3=O)C(C)(C)C)c2)c1` (single isomer, unassigned) [Example 357, N-[3-{1(R or S)-(4-Hydroxy-5,6-dihydro-2-oxo-6,6-bis(2-phenylethyl)-2H-pyran-3-yl)-2,2-dimethylpropyl}phenyl]-1-methyl-1H-imidazole-4-sulfonamide] has a Ki of 48.5 nM. `CC(C)(C)C(C1=C(O)CC(CCc2ccccc2)(CCc2ccccc2)OC1=O)c1cccc(NS(=O)(=O)c2ccc(C#N)cn2)c1` (single isomer, unassigned) [Example 359, N-[3-{1(R or S)-(4-Hydroxy-5,6-dihydro-2-oxo-6,6-bis(2-phenylethyl)-2H-pyran-3-yl)-2,2-dimethylpropyl}phenyl]-5-cyanopyridine-2-sulfonamide] was tested, and the Ki was 16.4 nM. In the case of `CCCC1(CCC)CC(O)=C(C(CC)c2cccc(NS(=O)(=O)c3ccc(N)cn3)c2)C(=O)O1` (single isomer, unassigned) [Example 363, N-[3-{1(R or S)-(4-Hydroxy-5,6-dihydro-2-oxo-6,6-dipropyl-2H-pyran-3-yl)-propyl}phenyl]-5-aminopyridine-2-sulfonamide], the Ki is reported as 0.083 nM. For `CCC[C@@]1(CCc2ccc(F)cc2)CC(O)=C([C@H](CC)c2cccc(NS(=O)(=O)c3ccc(C#N)cn3)c2)C(=O)O1` (single isomer, unassigned) [Example 365, N-[3-{1(R or S)-(4-Hydroxy-5,6-dihydro-2-oxo-6(R or S)-(2-(4-fluorophenyl)ethyl)-6-propyl-2H-pyran-3-yl)propyl}phenyl]-5-cyanopyridine-2-sulfonamide], the Ki was 0.023 nM.
